According to EPA's CvTdb concentration-time database:

What was measured:
Rat [1] = test: concentration in brain after dosing; conditions: 0.2 h; dosed: 2-Methyltetrahydrofuran; 40 mg/kg; iv; Male; Harlan Sprague Dawley
Rat [2] = test: concentration in plasma after dosing; conditions: 2 h; dosed: 2-Methyltetrahydrofuran; 40 mg/kg; iv; Female; Harlan Sprague Dawley
Rat [3] = test: concentration in plasma after dosing; conditions: 7 min; dosed: 2-Methyltetrahydrofuran; 40 mg/kg; iv; Male; Harlan Sprague Dawley
Rat [4] = test: concentration in plasma after dosing; conditions: 1.5 h; dosed: 2-Methyltetrahydrofuran; 40 mg/kg; iv; Male; Harlan Sprague Dawley
Rat [5] = test: concentration in brain after dosing; conditions: 2 min; dosed: 2-Methyltetrahydrofuran; 40 mg/kg; iv; Male; Harlan Sprague Dawley
Rat [6] = test: concentration in plasma after dosing; conditions: 7 min; dosed: 2-Methyltetrahydrofuran; 40 mg/kg; iv; Male; Harlan Sprague Dawley; remark: listed apart in the source
Rat [7] = test: concentration in brain after dosing; conditions: 6 h; dosed: Fluorotelomer alcohol 8+2; 80 mg/kg; oral; Female; Harlan Sprague Dawley
Rat [8] = test: concentration in brain after dosing; conditions: 1 h; dosed: Fluorotelomer alcohol 8+2; 80 mg/kg; oral; Female; Harlan Sprague Dawley
Rat [9] = test: concentration in liver after dosing; conditions: 3 h; dosed: Fluorotelomer alcohol 8+2; 24 mg/kg; oral; Male; Harlan Sprague Dawley
Rat [10] = test: concentration in plasma after dosing; conditions: dosed: Fluorotelomer alcohol 8+2, 12 mg/kg, oral, Male, Harlan Sprague Dawley
Rat [11] = test: concentration in kidney after dosing; conditions: 6 h; dosed: Fluorotelomer alcohol 8+2; 24 mg/kg; oral; Male; Harlan Sprague Dawley
Rat [12] = test: concentration in kidney after dosing; conditions: 1 h; dosed: Fluorotelomer alcohol 8+2; 24 mg/kg; oral; Male; Harlan Sprague Dawley
Rat [13] = test: concentration in plasma after dosing; conditions: dosed: 678-39-7, 12 mg/kg, iv, Male, F344
Rat [14] = test: concentration in plasma after dosing; conditions: dosed: 678-39-7, 12 mg/kg, iv, Male, F344; remark: listed apart in the source
Rat [15] = test: concentration in plasma after dosing; conditions: dosed: Fluorotelomer alcohol 8+2, 12 mg/kg, oral, Male, Harlan Sprague Dawley; remark: listed apart in the source
Rat [16] = test: concentration in plasma after dosing; conditions: 10 h; dosed: Gemfibrozil; 50 mg/kg; oral; Male; Sprague-Dawley
Rat [17] = test: concentration in plasma after dosing; conditions: 6 h; dosed: Gemfibrozil; 100 mg/kg; oral; Male; Sprague-Dawley
Rat [18] = test: concentration in plasma after dosing; conditions: 1 h; dosed: Gemfibrozil; 100 mg/kg; oral; Male; Sprague-Dawley
Rat [19] = test: concentration in plasma after dosing; conditions: 0.5 h; dosed: Gemfibrozil; 4.29 mg/kg; oral; Male; Sprague-Dawley
Rat [20] = test: concentration in plasma after dosing; conditions: 10 min; dosed: Gemfibrozil; 4.29 mg/kg; oral; Male; Sprague-Dawley
Rat [21] = test: concentration in plasma after dosing; conditions: dosed: Perfluorohexanoic Acid, 80 mg/kg, oral, Male, Harlan Sprague Dawley
Rat [22] = test: concentration in plasma after dosing; conditions: dosed: Perfluorohexanoic Acid, 40 mg/kg, iv, Male, F344
Rat [23] = test: concentration in plasma after dosing; conditions: 1 h; dosed: Perfluorohexanoic Acid; 40 mg/kg; iv; Male; F344
Rat [24] = test: concentration in plasma after dosing; conditions: 0.75 h; dosed: Perfluorohexanoic Acid; 40 mg/kg; iv; Male; F344
Rat [25] = test: concentration in kidney after dosing; conditions: 6 h; dosed: Perfluorohexanoic Acid; 80 mg/kg; oral; Male; Harlan Sprague Dawley
Rat [26] = test: concentration in liver after dosing; conditions: 3 h; dosed: Perfluorohexanoic Acid; 80 mg/kg; oral; Female; Harlan Sprague Dawley
Rat [27] = test: concentration in kidney after dosing; conditions: 0.5 h; dosed: Perfluorohexanoic Acid; 80 mg/kg; oral; Female; Harlan Sprague Dawley
Rat [28] = test: concentration in liver after dosing; conditions: 24 h; dosed: Perfluorooctane Sulfonate; 20 mg/kg; oral; Female; F344
Rat [29] = test: concentration in liver after dosing; conditions: 864 h; dosed: Perfluorooctane Sulfonate; 20 mg/kg; oral; Female; F344
Rat [30] = test: concentration in liver after dosing; conditions: 6 h; dosed: Perfluorooctane Sulfonate; 2 mg/kg; oral; Female; Harlan Sprague Dawley
Rat [31] = test: concentration in plasma after dosing; conditions: 1848 h; dosed: Perfluorooctane Sulfonate; 2 mg/kg; oral; Female; Harlan Sprague Dawley
Rat [32] = test: concentration in kidney after dosing; conditions: 864 h; dosed: Perfluorooctane Sulfonate; 20 mg/kg; oral; Female; F344
Rat [33] = test: concentration in plasma after dosing; conditions: dosed: Perfluorooctane Sulfonate, 2 mg/kg, iv, Male, F344
Rat [34] = test: concentration in liver after dosing; conditions: 1848 h; dosed: Perfluorooctane Sulfonate; 2 mg/kg; oral; Female; Harlan Sprague Dawley
Rat [35] = test: concentration in kidney after dosing; conditions: 3360 h; dosed: Perfluorooctane Sulfonate; 20 mg/kg; oral; Male; Harlan Sprague Dawley
Rat [36] = test: concentration in plasma after dosing; conditions: dosed: Perfluorooctane Sulfonate, 2 mg/kg, oral, Female, Harlan Sprague Dawley
Rat [37] = test: concentration in liver after dosing; conditions: 6 h; dosed: Perfluorooctane Sulfonate; 20 mg/kg; oral; Female; F344
Rat [38] = test: concentration in kidney after dosing; conditions: 6 h; dosed: Perfluorooctane Sulfonate; 20 mg/kg; oral; Male; Harlan Sprague Dawley

CC1CCCO1 (stereo not drawn) [2-Methyltetrahydrofuran]
Conditions | concentration in brain [ng/mL] | concentration in plasma [ng/mL]
Rat [1] | 25500 | –
Rat [2] | – | 3580
Rat [3] | – | 53800
Rat [4] | – | 12000
Rat [5] | 39000 | –
Rat [6] | – | 41500

O=C(O)CCC(F)(F)C(F)(F)C(F)(F)C(F)(F)C(F)(F)C(F)(F)C(F)(F)F [Fluorotelomer acid 7+3]
Conditions | concentration in brain [ng/g] | concentration in kidney [ng/g] | concentration in liver [ng/g]
Rat [7] | 1470 | – | –
Rat [8] | 277 | – | –
Rat [9] | – | – | 2780
Rat [11] | – | 1250 | –
Rat [12] | – | 310 | –

Conditions | concentration in plasma [ng/mL]
Rat [10], 1 h | 650
Rat [10], 24 h | 210
Rat [13], 0.75 h | 365
Rat [13], 12 h | 74.1
Rat [14], 3 h | 807
Rat [14], 5 min | 11.6
Rat [15], 48 h | 245
Rat [15], 192 h | 25.5

Cc1ccc(C)c(OCCCC(C)(C)C(=O)O)c1 [Gemfibrozil]
Conditions | concentration in plasma [ng/mL]
Rat [16] | 4380
Rat [17] | 13800
Rat [18] | 57500
Rat [19] | 570
Rat [20] | 657

O=C(O)C(F)(F)C(F)(F)C(F)(F)C(F)(F)C(F)(F)F [Perfluorohexanoic Acid]
concentration in plasma [ng/mL]
Conditions | 3 h | 5 min | 9 h
Rat [21] | – | 29100 | 4040
Rat [22] | 34.9 | 18500 | –

Conditions | concentration in kidney [ng/g] | concentration in liver [ng/g] | concentration in plasma [ng/mL]
Rat [23] | – | – | 20100
Rat [24] | – | – | 18600
Rat [25] | 16900 | – | –
Rat [26] | – | 14700 | –
Rat [27] | 46000 | – | –

O=S(=O)([O-])C(F)(F)C(F)(F)C(F)(F)C(F)(F)C(F)(F)C(F)(F)C(F)(F)C(F)(F)F [Perfluorooctane Sulfonate]
Conditions | concentration in kidney [ng/g] | concentration in liver [ng/g] | concentration in plasma [ng/mL]
Rat [28] | – | 167000 | –
Rat [29] | – | 71400 | –
Rat [30] | – | 25400 | –
Rat [31] | – | – | 966
Rat [32] | 35600 | – | –
Rat [34] | – | 6900 | –
Rat [35] | 4960 | – | –
Rat [37] | – | 169000 | –
Rat [38] | 72300 | – | –

concentration in plasma [ng/mL]
Conditions | 5 min | 6 h | 192 h | 528 h | 1200 h | 3216 h
Rat [33] | – | 4060 | – | 1840 | – | 96.4
Rat [36] | 27.5 | – | 3830 | – | 1210 | –
